We go through one substance from patent publication US10874599B2, “Composition for inhibiting micro-organisms” (Clariant International Ltd., priority 2016, dated 2020).

What all share (experiment): MIC agar dilution test
Holding throughout (assay type): cell-based

For assay [1], the system named is Aspergillus brasiliensis. As to conditions: Experimental 1; Sabouraud-4% Dextrose-Agar, pH 5.6 (+/−0.2). On the procedure: (§1) For testing the inhibition of bacteria, Composition 6 from Table 1 above was diluted in butylpolyglycol and added in different concentrations to liquid Caso-Agar at 50° C. and is buffered to pH 7 (+/−0.2). For testing the inhibition of yeast and mold, the Composition 6 was diluted in butylpolyglycol and added in different concentrations to liquid Sabouraud-4% Dextrose-Agar at 50° C. and is buffered to pH 5.6 (+/−0.2). Each of the solutions is poured into a petri-dish and inoculated with the same amount of bacteria, yeast or mold respectively. The minimum inhibitory concentration (MIC) is the lowest concentration of Composition 6 that inhibits the growth of the respective microorganism where the next lowest dilution fails to inhibit the growth of said microorganism.
(§2) A similar experiment was carried out versus Experimental 1. The composition employed in this second experiment is almost identical in composition to Composition 6 from Table 1 above, differing only slightly in the exact levels of the components. Composition 6a is according to the first aspect of the present invention. Here, a comparison is made versus the efficacy of phenoxyethanol, alone and in combination with composition 6a.

Assay [2] concerns Aspergillus terreus. As to conditions: Experimental 1; Sabouraud-4% Dextrose-Agar, pH 5.6 (+/−0.2). The method, then: as §1, §2
Assay [3] relates to Candida albicans. As to conditions: Experimental 1; Sabouraud-4% Dextrose-Agar, pH 5.6 (+/−0.2). The method, then: as §1, §2
The subject of assay [4] is Candida parapsilosis. As to conditions: Experimental 1; Sabouraud-4% Dextrose-Agar, pH 5.6 (+/−0.2). On the procedure: as §1, §2
Assay [5] has as its system Citrobacter freundii. Particulars: Experimental 1; Caso-Agar, pH 7 (+/−0.2). The method, then:
as §1, §2

Assay [6] deals with Enterobacter aerogenes. As to conditions: Experimental 1; Caso-Agar, pH 7 (+/−0.2). The method, then: as §1, §2
Assay [7] deals with Enterobacter gergovia. Particulars: Experimental 1; Caso-Agar, pH 7 (+/−0.2). On the procedure: as §1, §2
Assay [8] relates to Escherichia coli. Particulars: Experimental 1; Caso-Agar, pH 7 (+/−0.2). The method, then: as §1, §2
Assay [9] has as its system Fusarium solani. Particulars: Experimental 1; Sabouraud-4% Dextrose-Agar, pH 5.6 (+/−0.2). On the procedure: as §1, §2
Assay [10] has as its system Klebsiella pneumoniae. As to conditions: Experimental 1; Caso-Agar, pH 7 (+/−0.2). The method, then: as §1, §2
Assay [11] deals with Penicillium funicolosium. As to conditions: Experimental 1; Sabouraud-4% Dextrose-Agar, pH 5.6 (+/−0.2). The method, then: as §1, §2
Assay [12] has as its system Penicillium minioluteum. Particulars: Experimental 1; Sabouraud-4% Dextrose-Agar, pH 5.6 (+/−0.2). On the procedure: as §1, §2
For assay [13], the system named is Pseudomonas aeruginosa. As to conditions: Experimental 1; Caso-Agar, pH 7 (+/−0.2). The method, then: as §1, §2
For assay [14], the system named is Saccharomyces cerevisiae. Particulars: Experimental 1; Sabouraud-4% Dextrose-Agar, pH 5.6 (+/−0.2). The method, then: as §1, §2
The subject of assay [15] is Staphylococcus aureus. Particulars: Experimental 1; Caso-Agar, pH 7 (+/−0.2). On the procedure: as §1, §2
Assay [16] deals with Brevibacterium linens. Particulars: Experimental 1; Caso-Agar, pH 7 (+/−0.2). On the procedure:
as §1

The test system of assay [17] is Cornyebacterium jeikeium. As to conditions: Experimental 1; Caso-Agar, pH 7 (+/−0.2). The method, then:
as §1

In assay [18] the test system is Cornyebacterium xerosis. Particulars: Experimental 1; Caso-Agar, pH 7 (+/−0.2). On the procedure: as §1
Assay [19] deals with Malassezia furfur. Particulars: Experimental 1; Sabouraud-4% Dextrose-Agar, pH 5.6 (+/−0.2). On the procedure:
as §1

Assay [20] concerns Malassezia pachydermatis. As to conditions: Experimental 1; Sabouraud-4% Dextrose-Agar, pH 5.6 (+/−0.2). The method, then:
as §1

The test system of assay [21] is Malassezia sympiodalis. Particulars: Experimental 1; Sabouraud-4% Dextrose-Agar, pH 5.6 (+/−0.2). On the procedure:
as §1

The subject of assay [22] is Staph. Epidermis. Particulars: Experimental 1; Caso-Agar, pH 7 (+/−0.2). The method, then:
as §1

The test system of assay [23] is Streptococcus mutans. As to conditions: Experimental 1; Caso-Agar, pH 7 (+/−0.2). The method, then:
as §1

For the substance Sorbitan Caprylate, the MIC in [1] amounted to 800 ppm; in [2], 800 ppm; in assay [3], 800 ppm; in [4], 800 ppm; in assay [5] it was 10000 ppm; in assay [6], 10000 ppm. The MIC came out at 10000 ppm in assay [7]; 10000 ppm in assay [8]; 800 ppm in assay [9]; 800 ppm in assay [10]; 400 ppm in [11]; 400 ppm in assay [12]. Moreover, the MIC worked out at 10000 ppm in [13]; 600 ppm in assay [14]; 800 ppm in assay [15]; 4000 ppm in assay [16]; 4000 ppm in [17]; 2000 ppm in assay [18]. The MIC in assay [19] amounted to 600 ppm; in [20], 400 ppm; in assay [21], 400 ppm; in assay [22], 10000 ppm; in assay [23] it was 2000 ppm.
